Tested on: Vγ9Vδ2 T cells
Test: γ9δ2 T cell proliferation/expansion after coculture of ZA-loaded iDCs with PBLs
Assay type: cell-based, human
Conditions: 7-day coculture of ZA-loaded iDCs with PBLs
Procedure: To check the functionality of the retained compound, ZA, the expansion of γ9δ2 T cells was evaluated after cocultivation of ZA-loaded iDCs with cryopreserved PBLs.
For evaluation of ex vivo frequency of γ9δ2 T cells freshly isolated PBMCs were stained with anti-CD3, anti-TCR-Vδ2 mABs and analysed via flow cytometry. Therefore, iDCs have been incubated as indicated for 24 h in standard medium (1×10^6 cells/mL) containing 5 μM ZA.
After loading with ZA, iDCs have been centrifuged and washed with PBS. The coculture of iDCs with PBLs was setup in a ratio of 20 (iDCs): γ9δ2 T cells ex vivo. The medium was supplemented with 10 U/mL IL-2 (Proleukin). After 7-day incubation cells were harvested, washed and stained with anti-CD3, anti-TCR-Vδ2 mABs to evaluate frequency of γ9δ2 T cells and their expansion via flow cytometry. For analysis the expansion rate was determined dividing whole cell amount of γ9δ2 T cells before or after 7-day-cultivation.

O=P(O)(O)C(O)(Cn1ccnc1)P(=O)(O)O [free ZA, zoledronic acid]
expansion rate of Vγ9δ2 T cells: about 15 fold

From patent publication US11337922B2, “Lipid particle formulations for delivery of RNA and water-soluble therapeutically effective compounds to a target cell” (BioNTech RNA Pharmaceuticals GmbH, priority 2015, dated 2022)
